Like-named read-outs stand apart in the source and are kept apart here.
How the values were obtained:
KRAS G12C [1] = target: T1, KRAS G12C (Homo sapiens, UniProt P01116, G12C); assay: Covalent inhibition / binding of KRAS G12C; conditions: binds KRAS G12C and traps it into inactive GDP-bound state
KRAS G12C [2] = target: T1, KRAS G12C; assay: Cellular assay: downstream effector protein recruitment; type: cell-based; conditions: cellular assays
[3] = tested on: KR ASG12C mutant cell lines; assay: Cellular assays: KRAS-driven oncogenic signaling and proliferation; type: cell-based; conditions: specifically in KRAS G12C mutant cell lines
[4] = tested on: KRAS G12C mutant xenograft and patient-derived xenograft tumor models; assay: Xenograft and patient-derived xenograft tumor models; type: in vivo; conditions: mice
[5] = Water sorption and desorption isotherms by Dynamic Vapor Sorption (DVS); type: physicochemical; conditions: for hygroscopicity / Change In Mass (%) - ref, Desorption / Change In Mass (%) - ref, Sorption: 25° C.; for hygroscopicity: 0 to 95% RH; for Change In Mass (%) - ref, Desorption / Change In Mass (%) - ref, Sorption: 40-0-95-0-40 (% RH)
Procedure: Water sorption and desorption isotherms were recorded at 25° C., 40° C. or 60° C. using a Dynamic Vapor Sorption (DVS) instrument as follows. The cycle used was as follows: 40-0-95-0-40 (% RH).

[6] = Granulation simulation experiments (XRPD after wetting and grinding); type: physicochemical
Procedure: Granulating solvent was added drop wise to the solid form being tested until the solid form was wetted sufficiently. The wet substance was ground manually. The solid form was evaluated for degree of crystallinity or form change by e.g., XRPD analysis and/or DSC analysis. Granulating solvents were water, pH 4.7, 50 mM acetate buffer, and pH 6.8, 50 mM phosphate buffer.

[7] = XRPD upon variation of humidity and temperature; type: physicochemical
[8] = Bulk stability studies (XRPD, HPLC degradation products); conditions: 1 week 50° C., 75% RH
Procedure: The stability of the crystalline form was investigated as follows. Bulk samples were analysed, e.g. by HPLC and/or XRPD after being exposed to various temperatures and residual humidities.

SMILES: C=CC(=O)N1CC2(CC(n3nc(-c4ccc5c(cnn5C)c4)c(-c4c(Cl)c(C)cc5[nH]ncc45)c3C)C2)C1 (single isomer, unassigned) [Compound A, 1-{6-[(4M)-4-(5-chloro-6-methyl-1H-indazol-4-yl)-5-methyl-3-(1-methyl-1H-indazol-5-yl)-1H-pyrazol-1-yl]-2-azaspiro[3.3]heptan-2-yl}prop-2-en-1-one]
- inhibition of KRAS G12C (KRAS G12C [1]): potent and selective covalent inhibitor
- downstream effector protein recruitment to KRAS G12C (KRAS G12C [2]): selectively inhibited
- KRAS-driven oncogenic signaling and proliferation [3]: inhibited
- antitumor activity [4]: dose-dependent antitumor activity
- expression of the MAPK pathway target gene dual-specific phosphatase 6 (DUPS6) [4]: reduction of expression

SMILES: C=CC(=O)N1CC2(CC(n3nc(-c4ccc5c(cnn5C)c4)c(-c4c(Cl)c(C)cc5[nH]ncc45)c3C)C2)C1 [Hydrate HA]
- water content corresponding to hosted water molecules ([5]; 2.5 molecules of water): 7.9%
- hygroscopicity [5]: hygroscopic
- water absorbed ([5]; 80% RH at 25° C.): up to 7.0%
- Change In Mass (%) - ref, Desorption ([5]; Cycle 1, target RH 0.0%): 0.002%
- Change In Mass (%) - ref, Sorption ([5]; Cycle 1, target RH 0.0%): 0.002%
- Change In Mass (%) - ref, Desorption ([5]; Cycle 1, target RH 10.0%): 2.638%
- Change In Mass (%) - ref, Sorption ([5]; Cycle 1, target RH 10.0%): 2.390%
- Change In Mass (%) - ref, Desorption ([5]; Cycle 1, target RH 20.0%): 3.008%
- Change In Mass (%) - ref, Sorption ([5]; Cycle 1, target RH 20.0%): 2.782%
- Change In Mass (%) - ref, Desorption ([5]; Cycle 1, target RH 30.0%): 3.381%
- Change In Mass (%) - ref, Sorption ([5]; Cycle 1, target RH 30.0%): 3.184%
- Change In Mass (%) - ref, Desorption ([5]; Cycle 1, target RH 40.0%): 3.838%
- Change In Mass (%) - ref, Sorption ([5]; Cycle 1, target RH 40.0%): 3.660%
- Change In Mass (%) - ref, Sorption ([5]; Cycle 1, target RH 50.0%): 4.295%
- Change In Mass (%) - ref, Sorption ([5]; Cycle 1, target RH 60.0%): 5.234%
- Change In Mass (%) - ref, Sorption ([5]; Cycle 1, target RH 70.0%): 6.244%
- Change In Mass (%) - ref, Sorption ([5]; Cycle 1, target RH 80.0%): 7.007%
- Change In Mass (%) - ref, Sorption ([5]; Cycle 1, target RH 90.0%): 7.633%
- Change In Mass (%) - ref, Sorption ([5]; Cycle 1, target RH […]): 7.973%
- Change In Mass (%) - ref, Desorption ([5]; Cycle 2, target RH 0.0%): 0.000%
- Change In Mass (%) - ref, Sorption ([5]; Cycle 2, target RH 0.0%): 0.000%
- Change In Mass (%) - ref, Desorption ([5]; Cycle 2, target RH 10.0%): 2.659%
- Change In Mass (%) - ref, Sorption ([5]; Cycle 2, target RH 10.0%): 2.388%
- Change In Mass (%) - ref, Desorption ([5]; Cycle 2, target RH 20.0%): 3.102%
- Change In Mass (%) - ref, Sorption ([5]; Cycle 2, target RH 20.0%): 2.773%
- Change In Mass (%) - ref, Desorption ([5]; Cycle 2, target RH 30.0%): 3.573%
- Change In Mass (%) - ref, Sorption ([5]; Cycle 2, target RH 30.0%): 3.163%
- Change In Mass (%) - ref, Desorption ([5]; Cycle 2, target RH 40.0%): 4.126%
- Change In Mass (%) - ref, Sorption ([5]; Cycle 2, target RH 40.0%): 3.624%
- Change In Mass (%) - ref, Desorption ([5]; Cycle 2, target RH 50.0%): 5.062%
- Change In Mass (%) - ref, Desorption ([5]; Cycle 2, target RH 60.0%): 6.040%
- Change In Mass (%) - ref, Desorption ([5]; Cycle 2, target RH 70.0%): 6.816%
- Change In Mass (%) - ref, Desorption ([5]; Cycle 2, target RH 80.0%): 7.346%
- Change In Mass (%) - ref, Desorption ([5]; Cycle 2, target RH 90.0%): 7.766%
- Change In Mass (%) - ref, Desorption ([5]; Cycle 2, target RH […]): 7.973%
- molecules of water hosted ([5]; depending on the relative humidity): up to 2.5 molecules
- XRPD after granulation simulation ([6]; solvent for granulation: Water): no form change
- form change on heating ([7]; at 80° C.): converts into an anhydrous form, namely Modification A
- XRPD pattern on heating ([7]; heated at ambient relative humidity from 25° C. to 65° C.): remains unchanged
- form change after equilibration (XRPD) (50° C. and 70° C.): formation of several solvates in cyclohexane, ethanol, isopropanol or 1,2-propanediol

SMILES: C=CC(=O)N1CC2(CC(n3nc(-c4ccc5c(cnn5C)c4)c(-c4c(Cl)c(C)cc5[nH]ncc45)c3C)C2)C1.O.O.O.O [Hydrate HB]
- maximum water uptake ([5]; 25° C. and up to 95% RH): about 13%
- Change In Mass (%) - ref, Desorption ([5]; Cycle 1, target RH 0.0%): 0.00%
- Change In Mass (%) - ref, Sorption ([5]; Cycle 1, target RH 0.0%): 0.00%
- Change In Mass (%) - ref, Desorption ([5]; Cycle 1, target RH 10.0%): 1.87%
- Change In Mass (%) - ref, Sorption ([5]; Cycle 1, target RH 10.0%): 0.56%
- Change In Mass (%) - ref, Desorption ([5]; Cycle 1, target RH 20.0%): 2.62%
- Change In Mass (%) - ref, Sorption ([5]; Cycle 1, target RH 20.0%): 2.03%
- Change In Mass (%) - ref, Desorption ([5]; Cycle 1, target RH 30.0%): 12.26%
- Change In Mass (%) - ref, Sorption ([5]; Cycle 1, target RH 30.0%): 2.51%
- Change In Mass (%) - ref, Desorption ([5]; Cycle 1, target RH 40.0%): 12.73%
- Change In Mass (%) - ref, Sorption ([5]; Cycle 1, target RH 40.0%): 2.81%
- Change In Mass (%) - ref, Sorption ([5]; Cycle 1, target RH 50.0%): 3.17%
- Change In Mass (%) - ref, Sorption ([5]; Cycle 1, target RH 60.0%): 3.69%
- Change In Mass (%) - ref, Sorption ([5]; Cycle 1, target RH 70.0%): 5.09%
- Change In Mass (%) - ref, Sorption ([5]; Cycle 1, target RH 80.0%): 10.34%
- Change In Mass (%) - ref, Sorption ([5]; Cycle 1, target RH 90.0%): 12.94%
- Change In Mass (%) - ref, Sorption ([5]; Cycle 1, target RH […]): 13.35%
- Change In Mass (%) - ref, Desorption ([5]; Cycle 2, target RH 0.0%): −0.09%
- Change In Mass (%) - ref, Sorption ([5]; Cycle 2, target RH 0.0%): −0.09%
- Change In Mass (%) - ref, Desorption ([5]; Cycle 2, target RH 10.0%): 1.74%
- Change In Mass (%) - ref, Sorption ([5]; Cycle 2, target RH 10.0%): 0.47%
- Change In Mass (%) - ref, Desorption ([5]; Cycle 2, target RH 20.0%): 2.37%
- Change In Mass (%) - ref, Sorption ([5]; Cycle 2, target RH 20.0%): 1.88%
- Change In Mass (%) - ref, Desorption ([5]; Cycle 2, target RH 30.0%): 11.38%
- Change In Mass (%) - ref, Sorption ([5]; Cycle 2, target RH 30.0%): 2.32%
- Change In Mass (%) - ref, Desorption ([5]; Cycle 2, target RH 40.0%): 11.87%
- Change In Mass (%) - ref, Sorption ([5]; Cycle 2, target RH 40.0%): 2.69%
- Change In Mass (%) - ref, Desorption ([5]; Cycle 2, target RH 50.0%): 12.24%
- Change In Mass (%) - ref, Desorption ([5]; Cycle 2, target RH 60.0%): 12.53%
- Change In Mass (%) - ref, Desorption ([5]; Cycle 2, target RH 70.0%): 12.78%
- Change In Mass (%) - ref, Desorption ([5]; Cycle 2, target RH 80.0%): 13.02%
- Change In Mass (%) - ref, Desorption ([5]; Cycle 2, target RH 90.0%): 13.24%
- Change In Mass (%) - ref, Desorption ([5]; Cycle 2, target RH […]): 13.35%
- form change at 0% RH ([7]; 0% RH): completely dehydrates
- form change on heating ([7]; further heating to 70° C. and above): converts to an anhydrous form, Modification B
- XRPD pattern on heating ([7]; heated from 25° C. to 40° C.): changes to hydrate HC
- % Degradation Products, as measured by HPLC ([8]; area-% products): 3.97%

SMILES: C=CC(=O)N1CC2(CC(n3nc(-c4ccc5c(cnn5C)c4)c(-c4c(Cl)c(C)cc5[nH]ncc45)c3C)C2)C1 [Modification C]
- hygroscopicity [5]: non hygroscopic
- Change In Mass (%) - ref, Desorption ([5]; Cycle 1, target RH 0.0%): −0.0018%
- Change In Mass (%) - ref, Sorption ([5]; Cycle 1, target RH 0.0%): −0.0018%
- Change In Mass (%) - ref, Desorption ([5]; Cycle 1, target RH 10.0%): 0.0522%
- Change In Mass (%) - ref, Sorption ([5]; Cycle 1, target RH 10.0%): 0.0639%
- Change In Mass (%) - ref, Desorption ([5]; Cycle 1, target RH 20.0%): 0.0984%
- Change In Mass (%) - ref, Sorption ([5]; Cycle 1, target RH 20.0%): 0.1010%
- Change In Mass (%) - ref, Desorption ([5]; Cycle 1, target RH 30.0%): 0.1282%
- Change In Mass (%) - ref, Sorption ([5]; Cycle 1, target RH 30.0%): 0.1365%
- Change In Mass (%) - ref, Desorption ([5]; Cycle 1, target RH 40.0%): 0.1658%
- Change In Mass (%) - ref, Sorption ([5]; Cycle 1, target RH 40.0%): 0.1764%
- Change In Mass (%) - ref, Sorption ([5]; Cycle 1, target RH 50.0%): 0.2099%
- Change In Mass (%) - ref, Sorption ([5]; Cycle 1, target RH 60.0%): 0.2719%
- Change In Mass (%) - ref, Sorption ([5]; Cycle 1, target RH 70.0%): 0.2954%
- Change In Mass (%) - ref, Sorption ([5]; Cycle 1, target RH 80.0%): 0.3628%
- Change In Mass (%) - ref, Sorption ([5]; Cycle 1, target RH 90.0%): 0.4475%
- Change In Mass (%) - ref, Sorption ([5]; Cycle 1, target RH […]): 0.5450%
- Change In Mass (%) - ref, Desorption ([5]; Cycle 2, target RH 0.0%): −0.0143%
- Change In Mass (%) - ref, Sorption ([5]; Cycle 2, target RH 0.0%): −0.0143%
- Change In Mass (%) - ref, Desorption ([5]; Cycle 2, target RH 10.0%): 0.0532%
- Change In Mass (%) - ref, Sorption ([5]; Cycle 2, target RH 10.0%): 0.0434%
- Change In Mass (%) - ref, Desorption ([5]; Cycle 2, target RH 20.0%): 0.1019%
- Change In Mass (%) - ref, Sorption ([5]; Cycle 2, target RH 20.0%): 0.0893%
- Change In Mass (%) - ref, Desorption ([5]; Cycle 2, target RH 30.0%): 0.1500%
- Change In Mass (%) - ref, Desorption ([5]; Cycle 2, target RH 40.0%): 0.2014%
- Change In Mass (%) - ref, Sorption ([5]; Cycle 2, target RH 40.0%): 0.1725%
- Change In Mass (%) - ref, Desorption ([5]; Cycle 2, target RH 50.0%): 0.2678%
- Change In Mass (%) - ref, Desorption ([5]; Cycle 2, target RH 60.0%): 0.3212%
- Change In Mass (%) - ref, Desorption ([5]; Cycle 2, target RH 70.0%): 0.3789%
- Change In Mass (%) - ref, Desorption ([5]; Cycle 2, target RH 80.0%): 0.4299%
- Change In Mass (%) - ref, Desorption ([5]; Cycle 2, target RH 90.0%): 0.5046%
- Change In Mass (%) - ref, Desorption ([5]; Cycle 2, target RH […]): 0.5450%
- form change after granulation simulation ([6]; aqueous media as the solvent for granulation): no form change
- form change after equilibration (in ethanol, and methanol): converts to Hydrate HA
- form change after equilibration (in isopropanol): converts into a mixture of HA and the isopropanol solvate
- XRPD after bulk storage [8]: No change

Reference: patent US20240116900A1, “NEW CRYSTALLINE FORMS OF A KRAS G12C INHIBITOR COMPOUND” (NOVARTIS AG, priority 2020, published 2024)
